Drawing on ChEMBL document CHEMBL1921744, “Lipophosphonoxins: new modular molecular structures with significant antibacterial properties” (J Med Chem, 2011), this text covers MIC for 1 molecule.

In brackets after ≈: the same amount, converted by molar mass.

For this test, the system named is Mycobacterium tuberculosis. The test can be described thus: Antimycobacterial activity against drug-resistant Mycobacterium tuberculosis. It counts as functional.

As usually defined, the MIC is the lowest concentration that inhibits growth of the organism. Molecule `CO[C@@H]1[C@@H](OC)[C@H](C)O[C@@H](OC(=O)C[C@@H](C)CC(=O)O[C@@H](CCCCCCCCCCCC(C)C)CC(=O)O[C@H]2CN(C)[C@@H]([C@H](O[C@@H]3O[C@H](CN)[C@@H](O)[C@H]3O)[C@H]3O[C@@H](n4ccc(=O)[nH]c4=O)[C@H](O)[C@@H]3O)C(=O)N(C)[C@@H]2C(=O)O)[C@@H]1OC` [CAPRAZAMYCIN B] yielded an MIC of 3.13 µg/mL (≈ 2.7 µM).
